Patent publication US8367659B2, “Oxazinyl isoflavonoid compounds, medicaments and use” (Marshall Edwards, Inc., priority 2007, dated 2013)
Each block holds one compound with its values, some of them ahead of it.

Legend:
[1] = test system: TXB2 synthesis in RAW 264.7 murine macrophages; experiment: LPS-induced TXB2 synthesis in RAW 264.7 murine macrophages; format: cell-based, mouse; conditions: 10 μM; relative to vehicle alone; FIG. 4
Method: (§1) The mouse macrophage cell line RAW 264.7 was cultured in DMEM supplemented with foetal calf serum (FCS), […] glutamine and 50 U/ml penicillin/streptomycin. Cells were treated with either test compound (in 0.025% DMSO) or vehicle alone, and added one hour before 50 ng/ml LPS. After incubation for 24 h, culture media was collected for PGE2 or TXB2 measurement by ELISA (Cayman Chemical), and TNFα measurement using an ELISA (Becton Dickinson). Test compounds were examined a concentration of 10 μM. […] Consequently, to assess the effect of test compounds on various analytes, cell viability was taken into consideration with the use of the formula: Actual effect of test compound=measured effect−(effect on cell viability×measured effect)

[2] = Free radical scavenging with DPPH; conditions: DPPH, 20 minutes, absorbance 517 nm; Table 4; read-out: Free radical scavenging ability EC50
Method: The antioxidant (free radical trapping) activity of test compounds was assessed using the stable free radical compound 2,2-diphenyl-1-picrylhydrazyl (DPPH). A stock solution of DPPH was prepared at a concentration of […] in ethanol and mixed for 10 minutes prior to use. Test compounds at a concentration of 100 μM were reacted with DPPH for, 20 minutes, alter which time the absorbance at 517 nm was determined. Initial screening of was done at 100 μM. The change in absorbance at 517 nm was compared to a reagent blank (DPPH with ethanol alone). […] The IC50 values were estimated as the concentration of test compound that caused a 0.6 change in absorbance (with 1.2 absorbance units representing total scavenging of the DPPH radical).
The antioxidant (free radical trapping) activity of test compounds was assessed using the stable free radical compound 2,2-diphenyl-1-picrylhydrazyl (DPPH). A stock solution of DPPH was prepared […] in ethanol and mixed for 10 minutes prior to use. Initial screening of test compound at a concentration of 100 μM was reacted with DPPH for 20 minutes, after which time the absorbance at 517 nm was determined. The change in absorbance was compared to a reagent blank (DPPH with ethanol alone). […] The IC50 value was estimated as the concentration of test compound that causes a 0.6 change in absorbance (with 1.2 absorbance units representing total scavenging of the DPPH radical).

[3] = test system: human umbilical vein smooth muscle cells (HUVSMC); experiment: Proliferation of human umbilical vein smooth muscle cells (MTT); format: cell-based; conditions: 10 μM; 10% FCS, 5 days; FIG. 8
Method: The effect of test compounds on human umbilical vein smooth muscle cells (HUVSMC) was examined. Cells were seeded into 96 well plates at a low seeding rate of 1.6×10^3 cells per well, and allowed to attach for 24 hours. The cells were then washed twice with medium without FCS and incubated in medium without FCS for 20 hours to serum starve them. Analogue was prepared in medium without FCS at 20 μM and added to the plates and incubated for one hour. Final analogue concentration was therefore 10 μM. The cells were then stimulated by adding medium +20% FCS, to give a final FCS concentration of 10%. The cells were incubated until the control cells i.e. those with FCS and no compound, were just confluent (5 days). An MTT assay was performed, and difference in absorbance in analogue treated cells from the control was calculated using the formula: test/control*100−100. Results
The effect of test compounds on human umbilical vein smooth muscle cells (HUVSMC), was examined. Cells, tissue explants from a neonate (HRI—passage 2), were seeded into 96 well plates at 1×10^3 cells per well, and allowed to attach for 24 hours. They were then washed twice and incubated in medium without foetal calf serum (FCS) for 24-48 hours to serum-starve them. Test compounds were prepared in medium without FCS and added to the plates and incubated for one hour. Medium with FCS was added to give a final concentration of 10% and the plates incubated for 4-5 days until the controls were just confluent.

[4] = test system: PGE2 synthesis in RAW 264.7 murine macrophages; experiment: LPS-induced PGE2 synthesis in RAW 264.7 murine macrophages; format: cell-based, mouse; conditions: 10 μM; relative to vehicle alone; FIG. 3
Method: as §1

[5] = test system: cancer cell lines; experiment: Anti-cancer activity, cancer cell lines tested as a group (MTT); format: cell-based
[6] = test system: NO synthesis in RAW 264.7 murine macrophages; experiment: LPS-induced NO synthesis in RAW 264.7 murine macrophages (Griess); format: cell-based, mouse; conditions: 10 μM; relative to vehicle alone; FIG. 6
Method: as §1, with “Dickinson). Nitrite concentration is a quantitative indicator of NO production and was determined by the Griess Reaction. Briefly, 100 μL of Griess reagent was added to 50 μL of each supernatant in duplicate. The absorbance at 550 nm was measured (Molecular Devices, SpectraMax 250 microplate spectrophotometer, CA, USA), and nitrite concentrations were determined against a standard curve of sodium nitrite. The percentage nitrite inhibition was calculated as: [100−(nitrite concentration of sample/nitrite of vehicle control LPS cells)×100]. Results” for “Dickinson).”

[7] = test system: MM200; experiment: Anti-cancer activity, MM200 melanoma cells (MTT); format: cell-based; conditions: 120 h; 5 days, MTT
[8] = test system: CP70; experiment: Anti-cancer activity, CP70 ovarian cancer cells (MTT); format: cell-based; conditions: 120 h, 5 days
[9] = test system: HPAC; experiment: Anti-cancer activity, HPAC pancreatic cancer cells (MTT); format: cell-based; conditions: Homo sapiens, 120 h, 5 days
[10] = molecular target: T1, GAL4-PPARγ fusion protein (Homo sapiens, UniProt P37231); experiment: PPARγ activity in transfected HEK293 cells (beta-lactamase reporter); format: cell-based; conditions: FIG. 13: 1 μM
T1 construct: host or cells: HEK293 (human embryonic kidney), stably transfected
Method: Human HEK293 cells, stably transfected with the PPARγ ligand binding domain fused with the DNA binding domain of the GAL4 protein (GAL4-PPARγ fusion protein), produce beta-lactamase when incubated with PPARγ ligands. Transfected human kidney embryonic cells (Invitrogen Inc., Carlsbad, Calif.) were seeded onto matrigel in 96-well plates and allowed to attach overnight. The following day, vehicle alone (DMSO) or test compound at 1, 5 and 10 μM was added at varying concentrations to cells and incubated for 16-18 hours. Cells were then loaded with a FRET-based fluorescent substrate to assess beta-lactamase activity. Cells were protected from light, and incubated at room temperature for 2 h. Plates were read on a fluorescence plate reader with an excitation wavelength of 409 nm and emission wavelengths of 460 nm and 530 nm. Results were expressed as a ratio of these two wavelengths after the background (cell-free control wells) had been subtracted. PPARγ activity was thus determined by measuring beta-lactamase activity as assessed by a fluorescent product to substrate ratio.

T1 sequence (P37231 238-503 limits assumed): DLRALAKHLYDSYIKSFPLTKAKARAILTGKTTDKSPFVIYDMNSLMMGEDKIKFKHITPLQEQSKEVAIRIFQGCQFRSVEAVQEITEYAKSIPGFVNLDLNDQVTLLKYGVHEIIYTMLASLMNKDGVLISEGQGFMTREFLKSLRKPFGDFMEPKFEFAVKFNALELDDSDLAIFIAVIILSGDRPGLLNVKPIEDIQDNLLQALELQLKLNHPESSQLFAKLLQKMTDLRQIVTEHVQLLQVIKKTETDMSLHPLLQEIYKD
T1 sequence (P04386 1-147 partner limits assumed): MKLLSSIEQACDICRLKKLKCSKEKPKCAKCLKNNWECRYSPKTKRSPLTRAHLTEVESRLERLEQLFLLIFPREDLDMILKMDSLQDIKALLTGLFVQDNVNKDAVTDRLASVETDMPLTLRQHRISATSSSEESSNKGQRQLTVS

Compound: Oc1ccc(C2=Cc3cc4c(cc3OC2)OCN(c2ccc(O)cc2)C4)cc1 [Compound 8, 4,4′-(Chromeno[6,7-e][1,3]oxazine-3,7 (2H,4H,8H)-diyl)diphenol]
mean change of LPS-induced TXB2 synthesis [1]: greatest inhibition
EC50 [2]: 16 µM
effect on proliferation of HUVSMCs induced by FCS [3]: significantly inhibited the proliferation

Compound: COc1ccc(CN2COc3cc4c(cc3C2)C=C(c2ccc(OC)c(OC)c2)CO4)cc1 [Compound 9, 7-(3,4-Dimethoxyphenyl)-3-(4-methoxybenzyl)-2,3,4,8-tetrahydrochromeno[6,7-e][1,3]oxazine]
mean change of LPS-induced PGE2 synthesis [4]: greatest inhibition
mean change of LPS-induced TXB2 synthesis [1]: greatest inhibition
toxicity against cancer cells ([5]; where tested): moderate toxicity
EC50 [2]: 36 µM

Compound: COc1ccc(C2=Cc3cc4c(cc3OC2)OCN(c2ccccc2)C4)cc1OC [Compound 12, 7-(3,4-Dimethoxyphenyl)-3-phenyl-2,3,4,8-tetrahydrochromeno[6,7-e][1,3]oxazine]
mean change of LPS-induced PGE2 synthesis [4]: greatest inhibition

Compound: COc1ccc(C2=Cc3cc4c(c(C)c3OC2)OCN(Cc2ccccc2)C4)cc1OC [Compound 13, 3-Benzyl-7-(3,4-dimethoxyphenyl)-10-methyl-2,3,4,8-tetrahydrochromeno[6,7-e][1,3]oxazine]
EC50 [2]: 41 µM

Compound: CCCN1COc2c(cc3c(c2C)OCC(c2ccc(OC)c(OC)c2)=C3)C1 [Compound 14, 7-(3,4-Dimethoxyphenyl)-10-methyl-3-propyl-2,3,4,8-tetrahydrochromeno[6,7-e][1,3]oxazine]
mean change of LPS-induced PGE2 synthesis [4]: greatest inhibition
mean change of LPS-induced NO synthesis [6]: greatest inhibition
mean change of LPS-induced TXB2 synthesis [1]: greatest inhibition

Compound: Oc1ccc(C2=Cc3cc4c(cc3OC2)OCN(Cc2ccc(Cl)cc2)C4)cc1 [Compound 15, 4-(3-(4-Chlorobenzyl)-2,3,4,8-tetrahydrochromeno[6,7-e][1,3]oxazin-7-yl)phenol]
IC50 [7]: 9.4 ± 1.5 µM
IC50 [8]: 4.41 µM
activity against CP70, HPAC and MM200 cell lines ([5]; CP70, HPAC and MM200): active
EC50 [2]: 22.5 µM
IC50 [9]: 7.89 µM

Compound: COCCCN1COc2cc3c(cc2C1)C=C(c1ccc(O)cc1)CO3 [Compound 16, 4-(3-(3-Methoxypropyl)-2,3,4,8-tetrahydrochromeno[6,7-e][1,3]oxazin-7-yl)phenol]
IC50 [7]: 1.8 µM
IC50 ([5]; read-out: most potent activity against the respective cell lines tested): 1 to 5 µM
EC50 [2]: 22 µM
IC50 [9]: 3.88 µM

Compound: Cc1ccc(N2COc3cc4c(cc3C2)C=C(c2ccc(O)cc2)CO4)cc1 [Compound 18, 4-(3-p-Tolyl-2,3,4,8-tetrahydrochromeno[6,7-e][1,3]oxazin-7-yl)phenol]
PPARγ activation, increase in beta-lactamase activity over media only control [10]: PPARγ agonist activity
EC50 [2]: 29 µM
effect on proliferation of HUVSMCs induced by FCS [3]: significantly inhibited the proliferation

Compound: COc1ccc(C2=Cc3cc4c(c(C)c3OC2)OCN(c2ccc(C)cc2)C4)cc1OC [Compound 19, 7-(3,4-Dimethoxyphenyl)-10-methyl-3-p-tolyl-2,3,4,8-tetrahydrochromeno[6,7-e][1,3]oxazine]
mean change of LPS-induced NO synthesis [6]: greatest inhibition
EC50 [2]: 41 µM
effect on proliferation of HUVSMCs induced by FCS [3]: significantly inhibited the proliferation

Compound: Cc1ccc(N2COc3cc4c(cc3C2)C=C(c2cccc(O)c2)CO4)cc1 [Compound 20, 3-(3-p-Tolyl-2,3,4,8-tetrahydrochromeno[6,7-e][1,3]oxazin-7-yl)phenol]
PPARγ activation, increase in beta-lactamase activity over media only control [10]: PPARγ agonist activity
EC50 [2]: 38 µM
effect on proliferation of HUVSMCs induced by FCS [3]: significantly inhibited the proliferation

Second part, led by results:

EC50 [2]: 44 µM
Compound: N#Cc1ccc(N2COc3cc4c(cc3C2)C=C(c2cccc(O)c2)CO4)cc1 [Compound 21, 4-(7-(3-Hydroxyphenyl)chromeno[6,7-e][1,3]oxazin-3(2H,4H,8H)-yl)benzonitrile]

PPARγ activation, increase in beta-lactamase activity over media only control [10]: PPARγ agonist activity
EC50 [2]: 27 µM
Compound: O=[N+]([O-])c1cccc(N2COc3cc4c(cc3C2)C=C(c2ccc(O)cc2)CO4)c1 [Compound 23, 4-(3-(3-Nitrophenyl)-2,3,4,8-tetrahydrochromeno[6,7-e][1,3]oxazin-7-yl)phenol]
mean change of LPS-induced PGE2 synthesis [4]: greatest inhibition
mean change of LPS-induced NO synthesis [6]: greatest inhibition
mean change of LPS-induced TXB2 synthesis [1]: greatest inhibition

EC50 [2]: 23 µM
Compound: CCCN1COc2c(cc3c(c2Br)OCC(c2ccc(O)cc2)=C3)C1 [Compound 25, 4-(10-Bromo-3-propyl-2,3,4,8-tetrahydrochromeno[6,7-e][1,3]oxazin-7-yl)phenol]

EC50 [2]: 26 µM
Compound: Cc1c2c(cc3c1OCN(c1ccc(O)cc1)C3)C=C(c1cccc(O)c1)CO2 [Compound 26, 3,4′-(10-Methyl-chromeno[6,7-e][1,3]oxazine-3,7(2H,4H,8H)-diyl)diphenol]

PPARγ activation, increase in beta-lactamase activity over media only control [10]: PPARγ agonist activity
Compound: CC(C)(C)c1ccc(CN2COc3cc4c(cc3C2)C=C(c2ccc(O)cc2)CO4)cc1 [Compound 29, 4-(3-(4-tert-Butylbenzyl)-2,3,4,8-tetrahydrochromeno[6,7-e][1,3]oxazin-7-yl)phenol]
